Tests used:
Magel2 KO neonates = test: Injection of oxytocin or vasopressin in Magel2 KO neonates: rescue of feeding and survival; type: in vivo, mouse
Method: (§1) Three to 5 hours after delivery, wild type pups or pups issued from a cross between an heterozygote (+/−) male with wild type females were temporally removed (10 min) from their mother, weighted and given a single s.c. (in the ventral region at the level of floating ribs) injection (20 μl) of isotonic saline or 2 μg oxytocin (Phoenix Pharmaceuticals. Inc., Catalog No. 051-01) dissolved in isotonic saline (20 μl). […] Following the same protocol, we injected vasopressin (Phoenix Pharmaceuticals. Inc., Catalog No. 065-07) at different doses. At P2, pups were scarified to be genotyped.
The results obtained with the injection of SSR 126768A OTA let us think that we might restore a normal feeding behaviour in Magel2 KO newborns with an OT injection just after birth. Early neonatal manipulation of OT was reported in the literature without alterations of the postnatal development (Cushing, B. S., et Al., 2003; Yamamoto, Y., et al., 2004; Saito, O., et Al., 2007). Initially, 28 wild type newborns were injected with an isotonic saline (20 μl) and 4 of them died at P1. Another cohort of 28 wild type newborns, […] on hypothalamic nuclei one hour after the injection (Cushing, B. S., et Al., 2003; Yamamoto, Y., et al., 2004). We then decided to inject 2 μg of OT in Magel2 KO and wild type newborns, 3 to 5 hours after birth, the time when wild type newborns started to suckle but not the mutant neonates. […] The level of lethality is similar after an injection of saline solution (4/28 dead pups) or oxytocin (3/28 dead pups) and is in the range of lethality normally observed in wild type cohorts. In a second step, ten litters including a total of 37 wild type and 40 Magel2 KO neonates, were injected with an oxytocin solution. At P2, we observed that 95% (35/37) of wild type and 93% (37/40) of Magel2 mutant newborns survived with milk previously detected in their stomach at P1. In parallel, we controlled that the rescue of Magel2 KO neonates was specifically due to the oxytocin injection and not to the injection stress and/or handling of neonates. […]

adult patients with PWS [1] = test: Tests evaluating the understanding of social codes (Sally and Ann, Cartoons, RMET); type: in vivo, human; conditions: 45 minutes after intranasal 24 UI
Method: Forty-five minutes after the intranasal administration, three tests evaluating the understanding of social codes were administered, which lasted one hour. Conversely to the behavioural grid, there was no pre-administration evaluation. The Sally and Ann test assesses one's ability to understand simple situations by story-telling and pictures. Cartoons depicting more complex social situations designed for the evaluation of autistic children were also used (“Cartoons”, unpublished test). The “Reading the Mind in the Eyes” test (RMET) assesses the ability to read emotions from subtle affective facial expressions, especially in the eyes. A shortened test with 19 images from the 36-item revised version was chosen by the team psychologist. In these three tests, TOM is necessary to understand and analyse the social situations that are presented. Statistical analysis was performed using the Mann-Whiney test, the Wilcoxon test or the chi2 test.

adult patients with PWS [2] = test: Eating behaviour scoring after intranasal administration; type: in vivo, human
Text: The behaviour of the patients was carefully monitored, scored daily by the team psychologist, and documented on the case report form for the two days before drug administration, on the half-day following administration (early effects) and over the two days following drug administration (late effects). Both the staff and the rater were unaware of treatment status. There are currently no validated grids that evaluate the specific behavioural features of patients with PWS that they particularly wanted to study, i.e. tendencies towards isolation, sadness, and depression, self-depreciation, self-mutilation, conflicts with others, disruptive behaviour, interest in friendship, interest in love affairs, and trust of others. […] The patients were well known to the team but the mean behavior status was re-evaluated during the first week of admission using the same grid. The behavioural features of the patients were scored as unchanged, moderately changed, or severely changed. […] Eating behaviour was also scored using three categories: usual, better than usual or worse, based on the analysis of each meal. The following were evaluated: amount of food intake per meal, amount of food requested per meal, duration of meal, and behaviour before/during/after the meal. To evaluate the early effect of OT, we analysed only the first meal after drug administration.

adult patients with PWS [3] = test: Tolerance in the clinical pilot study; type: in vivo, human; conditions: single intranasal 24 UI
Text: The inventors designed a double-blind randomised, placebo-controlled pilot study (ClinicalTrials.gov Identifier: NCT01038570) to be conducted in a dedicated PWS centre, where patients are regularly admitted for one month and live in a controlled environment. Patients know they have no free access to food but no doubt about the time and the content of meals. For each stay, 16 patients with PWS are admitted and take part in daily planned occupational and physical group activities. They also receive medical care as needed and psychological support. The 24 patients included in this study (16 females, 8 males, median age 28.5 years [18.7 to 43.6], median BMI 43 kg/m2 [19.4 to 67.4]) were stratified on gender and IQ (median IQ=51 [45 to 75]). […] Patients as well as parents or caregivers gave their written consent prior to entering the study. Exclusion criteria were an abnormal ECG and other severe cardiovascular problems. Patients were well known to the team. Each pair of patients of the same gender and same IQ range was evaluated the same day. The two patients of the pair received either OT or placebo in a double-blind randomisation. Patients were included in the study over the course of three series of stays.
Each patient received a single intranasal administration of either placebo (saline solution) or OT (Syntocinon®/-Spray, Novartis, Basel, Switzerland) with three puffs per nostril (24 UI). The dose of 24 UI is the most frequently reported in the literature. […] This nurse knew neither the patients nor the study.

wild type newborns = test: Injection of oxytocin in wild type neonates: lethality and survival; type: in vivo, mouse
Method: as §1
The results obtained with the injection of SSR 126768A OTA let us think that we might restore a normal feeding behaviour in Magel2 KO newborns with an OT injection just after birth. Early neonatal manipulation of OT was reported in the literature without alterations of the postnatal development (Cushing, B. S., et Al., 2003; Yamamoto, Y., et al., 2004; Saito, O., et Al., 2007). Initially, 28 wild type newborns were injected with an isotonic saline (20 μl) and 4 of them died at P1. Another cohort of 28 wild type newborns, […] on hypothalamic nuclei one hour after the injection (Cushing, B. S., et Al., 2003; Yamamoto, Y., et al., 2004). […] At P2, we observed that 95% (35/37) of wild type and 93% (37/40) of Magel2 mutant newborns survived with milk previously detected in their stomach at P1. […]

CC[C@H](C)[C@@H]1NC(=O)[C@H](Cc2ccc(O)cc2)NC(=O)[C@@H](N)CSSC[C@@H](C(=O)N2CCC[C@H]2C(=O)N[C@@H](CC(C)C)C(=O)NCC(N)=O)NC(=O)[C@H](CC(N)=O)NC(=O)[C@H](CCC(N)=O)NC1=O [oxytocin]
newborns survived at P2 with milk in stomach at P1 (Magel2 KO neonates; Magel2 mutant, 2 μg oxytocin s.c. 3 to 5 hours after birth, vehicle lethality 48.5% at P1): 93% | rescue of the death rate due to the feeding deficit (Magel2 KO neonates; one single injection, 3-5 hours after birth): efficiently rescue the death rate | patients who successfully completed the Sally and Ann test (adult patients with PWS [1]; OT group n=12, placebo 50%, P=0.19): Eighty-three | Cartoons score (adult patients with PWS [1]; OT vs placebo, P=0.56): 3.75 (1-18) | total RMET score (adult patients with PWS [1]; placebo 5.5 (1-11), P=0.18): 7 (4-9) | scores assessing eating behaviour, OT vs placebo group (adult patients with PWS [2]; intranasal 24 UI): No statistical difference | patients who did not feel hungry and slightly decreased their food intake (adult patients with PWS [2]; over the two days following intranasal administration, five patients, placebo 10%): 45% | Tolerance (adult patients with PWS [3]): excellent | adverse event during the study (adult patients with PWS [3]): No adverse event | effect on electrocardiogram and PSA (adult patients with PWS [3]): no effect | level of lethality (wild type newborns; s.c. oxytocin 2 μg in 20 μl NaCl 0.9%, wild type pups n=28, saline 4/28): 3/28 | newborns survived at P2 with milk in stomach at P1 (wild type newborns; wild type, 2 μg oxytocin s.c. 3 to 5 hours after birth): 95%
